In the supplement of paper PMC5908809:

Assays:
[1] = test system: normal NK cells expanded with K562-aAPC; test: percent inhibition of viability; higher = more inhibition; details: 72 h, IL-2 2.5 ng/mL
Protocol: (§1)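 Drug sensitivity and resistance testing on K562-aAPC-expanded normal NK cells: 5 concentrations (10-fold steps over a 10,000-fold range), 72 h at 37 °C, viability by CellTiter-Glo normalised to DMSO and benzethonium chloride controls; DSS from the fitted curve.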

NKL (IL-2 2.5 ng/mL) [2] = test: drug sensitivity score (DSS) (DSS units); higher = more sensitive; extreme values may be limits of the assay; details: 72 h
NK-YS (IL-2 2.5 ng/mL) [3] = test: as above; details: 72 h
[4] = test system: normal primary NK cells, pool 1 (3 donors) (IL-2 2.5 ng/mL); test: as above; details: 72 h
DERL-7 (IL-2 2.5 ng/mL) [5] = test: as above; details: 72 h
[6] = test system: normal primary NK cells, pool 2 (3 donors) (IL-2 2.5 ng/mL); test: as above; details: 72 h
[7] = test system: normal primary NK cells, pool 3 (3 donors) (IL-2 2.5 ng/mL); test: as above; details: 72 h
[8] = test system: normal primary NK cells, pool 1 (3 donors), resting (IL-2 0 ng/mL); test: as above; details: 72 h
KAI3 (IL-2 2.5 ng/mL) [9] = test: as above; details: 72 h
YT (IL-2 2.5 ng/mL) [10] = test: as above; details: 72 h
SNK-6 (IL-2 2.5 ng/mL) [11] = test: as above; details: 72 h
KHYG-1 (IL-2 2.5 ng/mL) [12] = test: as above; details: 72 h
NK-92 (IL-2 2.5 ng/mL) [13] = test: as above; details: 72 h
IMC-1 (IL-2 20 ng/mL) [14] = test: as above; details: 72 h
NKL (IL-2 2.5 ng/mL) [15] = test: percent inhibition of viability; higher = more inhibition; details: 72 h
NK-YS (IL-2 2.5 ng/mL) [16] = test: as above; details: 72 h
[17] = test system: normal primary NK cells, pool 1 (3 donors) (IL-2 2.5 ng/mL); test: as above; details: 72 h
DERL-7 (IL-2 2.5 ng/mL) [18] = test: as above; details: 72 h
[19] = test system: normal primary NK cells, pool 2 (3 donors) (IL-2 2.5 ng/mL); test: as above; details: 72 h
[20] = test system: normal primary NK cells, pool 3 (3 donors) (IL-2 2.5 ng/mL); test: as above; details: 72 h
[21] = test system: normal primary NK cells, pool 1 (3 donors), resting (IL-2 0 ng/mL); test: as above; details: 72 h
KAI3 (IL-2 2.5 ng/mL) [22] = test: as above; details: 72 h
YT (IL-2 2.5 ng/mL) [23] = test: as above; details: 72 h
SNK-6 (IL-2 2.5 ng/mL) [24] = test: as above; details: 72 h
KHYG-1 (IL-2 2.5 ng/mL) [25] = test: as above; details: 72 h
NK-92 (IL-2 2.5 ng/mL) [26] = test: as above; details: 72 h
IMC-1 (IL-2 20 ng/mL) [27] = test: as above; details: 72 h
[28] = test system: normal NK cells expanded with K562-aAPC; test: drug sensitivity score (DSS) (DSS units); higher = more sensitive; extreme values may be limits of the assay; details: 72 h; IL-2 2.5 ng/mL
Protocol: as §1

Cc1c2oc3c(C)ccc(C(=O)N[C@@H]4C(=O)N[C@H](C(C)C)C(=O)N5CCC[C@H]5C(=O)N(C)CC(=O)N(C)[C@@H](C(C)C)C(=O)O[C@@H]4C)c3nc-2c(C(=O)N[C@@H]2C(=O)N[C@H](C(C)C)C(=O)N3CCC[C@H]3C(=O)N(C)CC(=O)N(C)[C@@H](C(C)C)C(=O)O[C@@H]2C)c(N)c1=O [Dactinomycin] (max concentration tested 1000 nM)
percent inhibition of viability [%]
Details	0.1 nM	1 nM	10 nM	100 nM	1000 nM
DERL-7 (IL-2 2.5 ng/mL) [18]	-0.87	44.9	83	101	101
IMC-1 (IL-2 20 ng/mL) [27]	-6.77	-14.7	38.1	100	101
KAI3 (IL-2 2.5 ng/mL) [22]	-6.19	34.4	52.9	103	107
KHYG-1 (IL-2 2.5 ng/mL) [25]	-3.25	36.4	71	106	108
NK-92 (IL-2 2.5 ng/mL) [26]	-12.8	-6.87	22	87.4	105
NK-YS (IL-2 2.5 ng/mL) [16]	5.62	72.3	94.4	106	107
NKL (IL-2 2.5 ng/mL) [15]	-4.78	72.4	84.8	108	110
SNK-6 (IL-2 2.5 ng/mL) [24]	33.9	71.2	81.7	99.6	78.6
YT (IL-2 2.5 ng/mL) [23]	0.56	51	97.4	107	108
[1]	1.4	5.24	28.6	101	101
[17]	5.89	7.37	35.9	98.4	98.6
[19]	-13.2	8.51	64.2	94.5	95.7
[20]	-10.8	5.15	39.6	98.5	99.8
[21]	-15.9	13.6	67.8	91.7	90.8

Details	drug sensitivity score
DERL-7 (IL-2 2.5 ng/mL) [5]	33.6
IMC-1 (IL-2 20 ng/mL) [14]	23.2
KAI3 (IL-2 2.5 ng/mL) [9]	26.6
KHYG-1 (IL-2 2.5 ng/mL) [12]	30.4
NK-92 (IL-2 2.5 ng/mL) [13]	18.8
NK-YS (IL-2 2.5 ng/mL) [3]	39.5
NKL (IL-2 2.5 ng/mL) [2]	38.8
SNK-6 (IL-2 2.5 ng/mL) [11]	38.1
YT (IL-2 2.5 ng/mL) [10]	36.5
[4]	22
[6]	25.3
[7]	22.5
[8]	25.8
[28]	22.2

O=C(/C=C/c1cccnc1)NCCCCC1CCN(C(=O)c2ccccc2)CC1 [Daporinad] (max concentration tested 1000 nM)
percent inhibition of viability [%]
Details	0.1 nM	1 nM	10 nM	100 nM	1000 nM
DERL-7 (IL-2 2.5 ng/mL) [18]	-1.42	36.4	98.7	99.8	101
IMC-1 (IL-2 20 ng/mL) [27]	-4.3	-0.58	95.2	101	99.6
KAI3 (IL-2 2.5 ng/mL) [22]	0.04	4.42	89.6	104	107
KHYG-1 (IL-2 2.5 ng/mL) [25]	-4.62	0.47	102	108	110
NK-92 (IL-2 2.5 ng/mL) [26]	-12.4	-11	78.5	107	110
NK-YS (IL-2 2.5 ng/mL) [16]	-0.02	65.7	101	107	109
NKL (IL-2 2.5 ng/mL) [15]	-7.99	8.6	96.8	106	109
SNK-6 (IL-2 2.5 ng/mL) [24]	-2.25	67.5	98.8	101	101
YT (IL-2 2.5 ng/mL) [23]	-3.84	3.35	72	106	109
[1]	-5.42	-8.02	95.3	98.9	99.5
[17]	3.25	78.4	97.4	98.2	98.6
[19]	1.47	71.4	96.2	96.4	95.7
[20]	0.86	57.3	98.6	99.3	100
[21]	19.1	78.8	93.6	93.4	94.4

Details	drug sensitivity score
DERL-7 (IL-2 2.5 ng/mL) [5]	35.4
IMC-1 (IL-2 20 ng/mL) [14]	29.8
KAI3 (IL-2 2.5 ng/mL) [9]	29.3
KHYG-1 (IL-2 2.5 ng/mL) [12]	30.7
NK-92 (IL-2 2.5 ng/mL) [13]	26.9
NK-YS (IL-2 2.5 ng/mL) [3]	38.1
NKL (IL-2 2.5 ng/mL) [2]	31.6
SNK-6 (IL-2 2.5 ng/mL) [11]	38.3
YT (IL-2 2.5 ng/mL) [10]	26.6
[4]	39.6
[6]	37.9
[7]	37.3
[8]	40.4
[28]	29.2
